Laboratory results from patent US11331310B2, “Method of treating cocaine addiction” (MyMD Pharmaceuticals (Florida), Inc., priority 2015, dated 2022).
“Also recorded” adds a separate entry of the source.

What was measured:
MPTP-induced toxicity = settings: mice, cited from earlier work; for dopamine levels: MPTP
MAO-A [1] = target: T1, MAO-A (Homo sapiens, UniProt P21397); settings: cited from earlier work
T1 construct: purchased
T1 sequence (P21397 1-527): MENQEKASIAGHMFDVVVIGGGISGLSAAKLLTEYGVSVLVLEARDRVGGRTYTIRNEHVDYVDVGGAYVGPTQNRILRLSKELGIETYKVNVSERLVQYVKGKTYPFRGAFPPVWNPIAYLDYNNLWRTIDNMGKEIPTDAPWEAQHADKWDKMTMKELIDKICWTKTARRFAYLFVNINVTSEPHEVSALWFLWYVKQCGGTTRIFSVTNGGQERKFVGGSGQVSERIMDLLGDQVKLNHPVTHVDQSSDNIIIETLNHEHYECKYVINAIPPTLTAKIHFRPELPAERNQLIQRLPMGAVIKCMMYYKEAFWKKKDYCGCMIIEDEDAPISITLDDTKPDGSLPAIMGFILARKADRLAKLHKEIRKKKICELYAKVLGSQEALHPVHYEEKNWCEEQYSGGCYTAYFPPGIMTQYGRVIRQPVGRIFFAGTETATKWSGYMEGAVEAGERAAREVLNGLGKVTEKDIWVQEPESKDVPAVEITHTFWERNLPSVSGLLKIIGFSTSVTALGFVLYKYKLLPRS

MAO-B [2] = target: T2, MAO-B (Homo sapiens, UniProt P27338); settings: cited from earlier work
T2 sequence (P27338 1-520): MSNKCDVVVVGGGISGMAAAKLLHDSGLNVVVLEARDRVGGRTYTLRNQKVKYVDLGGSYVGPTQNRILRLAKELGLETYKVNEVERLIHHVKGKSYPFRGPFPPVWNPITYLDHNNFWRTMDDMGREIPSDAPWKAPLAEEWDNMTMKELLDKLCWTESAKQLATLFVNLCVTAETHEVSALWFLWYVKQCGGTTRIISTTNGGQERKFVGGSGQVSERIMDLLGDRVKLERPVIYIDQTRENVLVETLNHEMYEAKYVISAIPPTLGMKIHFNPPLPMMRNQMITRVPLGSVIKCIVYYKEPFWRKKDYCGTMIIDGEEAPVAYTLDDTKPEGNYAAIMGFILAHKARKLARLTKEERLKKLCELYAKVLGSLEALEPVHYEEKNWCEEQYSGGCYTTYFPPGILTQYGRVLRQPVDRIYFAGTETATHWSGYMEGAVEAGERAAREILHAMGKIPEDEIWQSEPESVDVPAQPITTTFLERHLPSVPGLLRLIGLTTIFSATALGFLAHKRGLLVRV

MAO-A [3] = target: T1, MAO-A; assay: MAO-Glo luminescent assay, MAO-A inhibition; assay type: biochemical
Excerpt: (§1) This example describes experiments for determining monoamine oxidase (MAO) inhibition for isomyosmine and other alkaloids. MAOs are enzymes located on the outer membrane of mitochondria and are involved in the catabolism of monoamine neurotransmitters. There are two well-characterized isoenzymes: MAO-A, which predominantly catabolizes serotonin and norepinephrine, and MAO-B, which preferentially catabolizes benzylamine and phenylethylamine. Dopamine and tyramine are metabolized by both isoforms.
(§2) To detect the activity of MAO, a luminescent method (MAO-Glo Assay kit, from Promega, Cat #V1401) was used. In this method, a MAO substrate (a derivative of beetle luciferin provided in the kit) is mixed with the compound to be tested (in this case, myosmine and control compounds). Then, the MAO enzymes (either A or B, purchased separately) are added to the mixture and incubated with the reaction for 1 hour at room temperature. The MAO enzymes, if not inhibited by the test compound, will convert the substrate into methyl ester luciferin. Finally, a luciferin detection reagent (provided by the kit) is added (20 minutes at room temperature) to stop the MAO reaction and convert methyl ester luciferin into D-luciferin. […] The luminescent signal is measured and recorded using a luminometer. […]

MAO-B [4] = target: T2, MAO-B; assay: MAO-Glo luminescent assay, MAO-B inhibition; assay type: biochemical; settings: 1 hour at room temperature, compared among five alkaloids
Excerpt: as §1, §2

[5] = Oxygen saturation in individuals after oral administration; assay type: in vivo; settings: fourteen individuals, one hour after oral administration, 100-300 mg depending on body weight
Excerpt: Increasing oxygen saturation levels is believed to make isomyosmine particularly effective for treating substance addictions, including tobacco/nicotine addictions, as well as addictions to heroin, cocaine, opioids, methadone, d-methamphetamine, barbiturates, alcohol, benzodiazepines, amphetamines, or buprenorphine. For example, substances such as cocaine are known to cause blood vessels to constrict, resulting in increased heartrate and blood pressure and increased stress on the heart's ability to circulate blood and oxygen through the body. Increasing oxygen saturation levels may, among other things, counteract these types of effects associated with substance abuse by increasing blood oxygen levels, aiding in the treatment of the underlying addiction.

Row | Compound | dopamine levels (MPTP-induced toxicity) | decrease in dopamine metabolite levels induced by MPTP (MPTP-induced toxicity) | MAO inhibitory effects against MAO-A (MAO-A [1]) | MAO inhibitory effects against MAO-B (MAO-B [2]) | also measured
1 | c1ccc(-c2ccncc2)cc1 [4-phenylpyridine] | no significant effect | prevented the decrease |  |  | 
2 | c1cncc([C@@H]2CCCCN2)c1 [anabasine] |  |  | exhibited MAO inhibitory effects | exhibited MAO inhibitory effects | 
3 | C1=CCC(c2cccnc2)NC1 (stereo not drawn) [anatabine] |  |  | exhibited MAO inhibitory effects | exhibited MAO inhibitory effects | 
4 | C1=NC(c2cccnc2)CC1 (stereo not drawn) [isomyosmine, 3-(3,4-dihydro-2H-pyrrol-2-yl)-pyridine] |  |  |  |  | inhibition at 2000 µM (MAO-A [3]; 2 mM concentration (2,000 micromolar)): ~50%; inhibition of the enzymatic activity of MAO-A (in words, curve position in FIG. 1) (MAO-A [3]; 1 hour at room temperature, compared among five alkaloids): most potent of the five; also recorded: potent inhibitor; inhibition of the activity of MAO-B (in words, FIG. 2) (MAO-B [4]): potent inhibitor; inhibition of the activity of MAO-B (in words, FIG. 2) (MAO-B [4]; listed as Isomyosmine): most potent among the five alkaloids tested; oxygen saturation (%) [5]: dramatically increase
5 | CN1CCCC1c1cccnc1 (stereo not drawn) [nicotine] | no significant effect | prevented the decrease |  |  | 
6 | c1cncc([C@@H]2CCCN2)c1 [nornicotine] |  |  | exhibited MAO inhibitory effects | exhibited MAO inhibitory effects | 
